We go through 1 compound from patent US20260137697A1, “THIAZOLO[5,4-D]PYRIMIDINE COMPOUNDS, COMPOSITIONS COMPRISING THEM AND USES THEREOF” (University de Montreal, priority 2022, published 2026).

The test system of this experiment is pERK, RAS-mutant cancer cell lines. The experiment in a line: Paradoxical pERK induction across the panel of RAS-mutant cancer cell lines. In kind it is cell-based, human. As to conditions: in 10 of the 13 RAS-mutant cell lines tested; mild to strong induction of the pathway. As for the experimental part: All cancer cell lines (A375, A101D, A2058, RKO, HT29 SK-MEL 30, IPC298, HepG2, HCT-116, Lovo, SW620, SW480, NCI-H358, NCI-H2122, Calu-6, NCIH2087, NCIH1755, NCIH1666 and Mewo) were obtained from ATCC and cultured in RPM1-1640 medium (Gibco) supplemented with 5% heat inactivated fetal bovine serum (FBS, Wisent) at 37° C. under 5% CO2. Cells were maintained in T175 flasks (Greiner). They were passaged by removing the culture medium, washing once in 10 mL of room temperature Phosphate Buffered Saline (PBS; Wisent) and incubating at 37° C. with 2 mL of 0.05% Trypsin (Thermo-Fisher). […]
After treatment, media was removed, and cells were lysed in 50 μL of 1× AlphaScreen Ultra Lysis Buffer (Perkin Elmer). […] After completion of the reactions, the signals were recorded on an EnVision plate reader (Perkin Elmer) using built in AlphaLISA® settings.
The effect of each compound dilution on the pERK signal was expressed in % inhibition and calculated as follows. […]
The ability of each compound to inhibit pERK signal was expressed as an IC50 value obtained by plotting the inhibition values for each data point of a dilution series and fitting the obtained curves using a log(agonist) versus response—variable slope (four parameters) function using GraphPadPrism (V7.0) or Dotmatics Screening Ultra platform. […]

The structures appear in SMILES notation. Bounds are passed on as bounds.

For `Cc1ccc2c(Nc3cccc(Cl)c3F)nccc2c1NC(=O)c1csc2c(N)ncnc12` [Belvarafenib, reference compound], the “YMIN of pERK IC50 curves” value was less than −30%.
